Data taken from US20250241878A1, “TYROSINE AND RESVERATROL DERIVATIVES AS NOVEL MODULATORS OF CELLULAR SERINE ADP-RIBOSYLATION” (UNIVERSITY OF SOUTH CAROLINA, priority 2022, published 2025).

How the values were obtained:
eIF2α = assay: p-eIF2α Western blot in cortical neurons; type: cell-based, rat; settings: compound alone
Method: Primary cortical neurons were dissected from E18 Sprague Dawley rat pups in Hibernate E (BrainBits®) and dissociated using the Neural Tissue Dissociation kit (Miltenyi Biotec). […] After washing and centrifugation, neurons were seeded in 50 μg/ml poly-D-Lysine (Sigma-Aldrich) coated tissue culture plates. NBActive-1 medium (BrainBits®) supplemented with 100 U/ml of Penicillin-Streptomycin (Life TechnologiesTM), 2 mM L-Glutamine (Life TechnologiesTM), and 1×[…] supplement (R&D SystemsTM) was used as culture medium. For preparation of culture medium containing reduced tyrosine, the components of NBActive-1 medium were altered to combined with a reduced concentration of tyrosine, as mentioned in Table 1, and was supplemented with 100 U/ml of Penicillin-Streptomycin (Life TechnologiesTM), 2 mM L-Glutamine (Life TechnologiesTM), and 1×[…] supplement (R&D SystemsTM) to obtained culture medium with reduced tyrosine. […] For PARP1 siRNA, neurons at 7 DIV were transfected with 75 nM siRNA for both control and PARP1 siRNA. […] The lysates were centrifuged at 10,000 RPM for 15 mins at 4° C. to separate the chromatin-bound and soluble fractions. Lysates were quantified using Bio-RadTM Protein Assay and equal amounts of protein were loaded onto a 4 to 12% gradient gel (InvitrogenTM NuPAGETM). […] Quantification of western blots was done using ImageJ (Version 1.53c).

[1] = target: T1, interaction of eEF2 with TyrRS and PP2A (Rattus norvegicus, UniProt Q4KM49); assay: eEF2 immunoprecipitation probed for PP2A and TyrRS; type: cell-based; settings: compound alone
T1 construct: endogenous in cells; host or cells: primary rat (E18 Sprague Dawley) cortical neurons
T1 sequence (Q4KM49 1-528): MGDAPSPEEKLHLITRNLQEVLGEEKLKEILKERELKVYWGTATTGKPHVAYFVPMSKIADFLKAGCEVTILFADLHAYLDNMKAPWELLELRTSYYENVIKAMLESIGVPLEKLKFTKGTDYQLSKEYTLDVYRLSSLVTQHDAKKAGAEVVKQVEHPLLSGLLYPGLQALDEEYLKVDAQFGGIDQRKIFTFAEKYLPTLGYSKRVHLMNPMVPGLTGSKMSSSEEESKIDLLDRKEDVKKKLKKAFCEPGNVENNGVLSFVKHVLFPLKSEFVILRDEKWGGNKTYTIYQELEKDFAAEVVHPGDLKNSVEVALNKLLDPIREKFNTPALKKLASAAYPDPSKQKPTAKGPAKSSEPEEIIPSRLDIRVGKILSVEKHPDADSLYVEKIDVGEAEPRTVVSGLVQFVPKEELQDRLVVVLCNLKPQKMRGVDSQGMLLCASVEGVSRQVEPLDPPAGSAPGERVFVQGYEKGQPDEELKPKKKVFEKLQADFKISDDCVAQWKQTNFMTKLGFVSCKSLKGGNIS
Excerpt: Immunoprecipitated eEF2 was probed for its interaction with PP2A and TyrRS using their specific antibodies.

OGG1 = OGG1 levels Western blot in cortical neurons; type: cell-based, rat
Method: FIG. 4C presents primary cortical neurons treated with Tyr ([…]) for 8 hr, and OGG1 was detected by Western Blot analysis using anti-OGG1 antibody.
(§1) Cultured neurons (DIV 9-10) were washed once with cold 1×PBS and lysed in cell lysis buffer (20 mM Tris-HCl (pH 7.5), 150 mM NaCl, 1 mM Na2EDTA, 1 mM EGTA, 1% Triton™, 2.5 mM sodium pyrophosphate, 1 mM beta-glycerophosphate, 1 mM Na3VO4, 1 μg/ml leupeptin supplemented with protease inhibitor). The lysates were centrifuged at 10,000 RPM for 15 mins at 4° C. to separate the chromatin-bound and soluble fractions. Lysates were quantified using Bio-Rad™ Protein Assay and equal amounts of protein were loaded onto a 4 to 12% gradient gel (Invitrogen™ NuPAGE™). Protein was transferred from the gel to 0.2 μm NC membranes at 25 V for 10 mins using transfer stacks (iBlot™ 2-Invitrogen™) and blocked with 5% non-fat milk in TBST (10 mM Tris-HCl pH 8.0, 150 mM NaCl, 0.01% Tween-20) for 1 hr before application of primary antibodies. Primary and secondary antibodies were incubated overnight at 4° C. and for 1 hr at room temperature, respectively. Immobilon® ECL Ultra Western HRP Substrate (WBULS0500, Millipore™) and a luminescent image analyzer (ChemiDoc™ Imaging System, Bio-Rad™) were used to detect proteins. Quantification of western blots was done using ImageJ (Version 1.53c).

cleaved caspase-3 = assay: Cleaved caspase-3 immunoblot; type: cell-based, rat; settings: compound alone; trans-RSV at high concentration
Method: FIG. 17E presents immunoblots showing the levels of cleaved caspase-3 in rat cortical neurons (DIV 9/10) after the treatment with D-Tyr (2 mM) for 16 hr.

[2] = test system: interaction of PARP1 with histone H3; assay: PARP1 immunoprecipitation probed for H3; type: cell-based, rat
Method: FIG. 18A presents representative immunoblots and quantification of the interaction of H3 with PARP1. […] The interaction of PARP1 with H3 was determined using anti-H3 antibody.

cortical neurons = assay: DNA fiber analysis (CIdU incorporation); type: cell-based, rat
Method: Molecular combing was performed using the FiberComb® Molecular Combing System (Genomic Vision) with a constant stretching factor of 2 kb/μm using […] coverslips (20×20 mm; Genomic Vision). […] The coverslips were then washed with PBS, followed by serial ethanol dehydration (70%-100%). Following two 1×PBS washes, the coverslips were blocked in 3% BSA/1×PBS for 30 min followed by incubation with α-BrdU (for CIdU) (BD [347,580]) (1:100) and ssDNA antibody (MilliporeTM MAB3034) (1:100), for 2 hr at 37° C. After three PBST washes, secondary antibody incubation was done using α-mouse Alexa Fluor® 594 and α-rat Alexa Fluor® 488 (1:500) for 1 hr at 37° C. Coverslips were washed three times with 1×PBST, dehydrated and mounted on slides with mounting media. The stained DNA fibers were visualized using a fluorescence microscope (EVOS FL, Thermo FisherTM Scientific). Analysis was performed in ImageJ by counting the total ssDNA and the CIdU labeled fibers. For each treatment condition, 300 fibers were counted, and the average ratio of CIdU incorporation for ssDNA fibers per condition was used for final representation.

HPF1 = HPF1 levels immunoblot in cortical neurons; type: cell-based, rat; settings: compound alone
Method: FIG. 5A presents immunoblots showing the protein levels of HPF1 in rat cortical neurons (DIV9-10) after treatment with Tyr ([…]) for up to 8 hr.
as §1

Compound	p-eIF2α levels (eIF2α)	interaction of eEF2 with TyrRS and PP2A [1]	effect on tyrosine-mediated decrease of OGG1 levels (OGG1; combination with tyrosine)	levels of cleaved caspase-3 (cleaved caspase-3)	interaction of PARP1 with histone H3 ([2]; cis-RSV)	reduction of CIdU incorporation compared to control (cortical neurons; after cis-RSV treatment)	HPF1 levels (HPF1)	interaction of PARP1 with histone H3 ([2]; higher concentrations (≥25 mM) of trans-RSV)	interaction of PARP1 with histone H3 ([2]; low concentrations of trans-RSV)	incorporation of nucleoside analog CIdU into DNA fibers (cortical neurons; compound alone)	OGG1 levels (OGG1; compound alone)
Oc1ccc(/C=C\c2cc(O)cc(O)c2)cc1 [cis-RSV, cis-resveratrol]	triggered a transient increase in the levels of p-eIF2α	facilitated the interaction of eEF2 with TyrRS and PP2A	rescued	decreased the levels of caspase-3 cleavage	prevented the interaction of PARP1 with histone H3	15-20%	–	–	–	–	–
Oc1ccc(/C=C/c2cc(O)cc(O)c2)cc1 [trans-RSV, trans-resveratrol]	sustained the inhibition of eIF2α	decreased their interactions	–	increased the levels of cleaved caspase-3	–	–	decreased HPF1 levels	increased it	prevented the interaction of PARP1 with histone H3	prevented the incorporation of the nucleoside analog CIdU into DNA fibers	–
N[C@@H](Cc1ccc(O)cc1)C(=O)O [tyrosine, L-tyrosine]	–	decreased their interactions	–	–	–	–	decreased HPF1 levels	–	–	–	decreased 8-oxoguanine-DNA glycosylase (OGG1) levels
